Assay results taken from US4427693A, “Antiinflammatory 4,5-diaryl-α,α-bis (polyhalomethyl)-2-thiophenemethanamines” (E. I. Du Pont de Nemours and Company, priority 1981, dated 1984).
Read-outs that look alike come from different tables or passages of the source.

System: Adjuvant-Induced Arthritis
Experiment: Established Adjuvant-Induced Arthritis in Rats
Type: in vivo, Charles River Lewis male rats
Conditions: for ED50: Rattus norvegicus, 168 h, read-out: ED50 = effective dose for 50% decrease from control paw volume
Protocol: A procedure for detecting and comparing the antiinflammatory activity of compounds in this series and standard drugs for which there is a good correlation with human efficacy is the adjuvant-induced arthritis test in rats.
Established Adjuvant-Induced Arthritis in Rats
Charles River Lewis male rats (130-150 grams) are injected subcutaneously in plantar area of the right hind paw with 0.1 ml of adjuvant (Difco heatkilled, lyophilized Mycobacterium butyricum suspended in mineral oil 5 mg/ml). 20 Non-arthritic controls are injected with mineral oil. The animals are held for 2 weeks to allow development of arthritis. Paw volumes (uninjected, left hind paw) are measured and the adjuvant injected rats are culled and distributed to treatment groups of 10 of equal disease severity. Non-arthritic controls are distributed to 2 groups of 10. The rats are given oral doses of compound or PVA-Acacia (Polyvinyl Alcohol 1%, Gum Acacia, U.S.P. 5%, Methylparaben 0.5%) (10 ml/kg) by gavage on that day and on the 6 following days. One day after the last dose the paw volumes (uninjected, left hind paw) are measured using a Ugo Basile Volume Differential Meter Model 7101. [formula]
Dose-response regression lines of the % decrease are plotted on semi-log paper by visual fit and the ED50% decrease from control paw volume is determined by inspection.

[1] = oral by gavage, daily, 7 days, dose-response regression lines, by visual fit

| SMILES | ED50 [1] [mg/kg] | further results |
| --- | --- | --- |
| CC(=O)Oc1ccccc1C(=O)O [Aspirin, reference compound] |  | ED50 (po): 270 mg/kg |
| COc1ccc(-c2cc(C(N)(C(F)(F)F)C(F)(F)F)sc2-c2ccc(OC)cc2)cc1 [Example 1, 4,5-Bis(4-methoxyphenyl)-α,α-bis(trifluoromethyl)-2-thiophenemethanamine] |  | Percent Decrease From Control Paw Volume (daily oral dose 27 mg/kg, 7 days, p < 0.001 compared to control by Students "t" test): 47% |
| NC(c1cc(-c2ccc(F)cc2)c(-c2ccc(F)cc2)s1)(C(F)(F)F)C(F)(F)F [Example 2, 4,5-bis(4-fluorophenyl)-α,α-bis(trifluoromethyl)-2-thiophenemethanamine] | 1.3 |  |
| CSc1ccc(-c2sc(C(N)(C(F)(F)F)C(F)(F)F)cc2-c2ccc(F)cc2)cc1 [Example 3, 4-(4-fluorophenyl)-5-(4-methylthiophenyl)-α,α-bis(trifluoromethyl)-2-thiophenemethanamine] | 9 |  |
| NC(c1cc(-c2ccc(F)cc2)c(-c2ccc(Cl)cc2)s1)(C(F)(F)F)C(F)(F)F [Example 4] |  | Percent Decrease From Control Paw Volume (daily oral dose 9 mg/kg, 7 days, p < 0.1 compared to control by Students "t" test): 37% |
| NC(c1cc(-c2ccccc2)c(-c2ccccc2)s1)(C(F)(F)F)C(F)(F)F [Example 5] | 17 |  |
| NC(c1cc(-c2ccc(F)cc2)c(-c2ccc(F)cc2)s1)(C(F)(F)F)C(F)(F)Cl (stereo not shown) [Example 6] | 3.8 |  |
| NC(c1cc(-c2ccc(F)cc2)c(-c2ccc(F)cc2)s1)(C(F)F)C(F)(F)F (stereo not shown) [Example 7] | 10.5 |  |
| Cc1ccc(-c2cc(C(N)(C(F)(F)F)C(F)(F)F)sc2-c2ccc(C)cc2)cc1 [Example 13] |  | Percent Decrease From Control Paw Volume (daily oral dose 24 mg/kg, 7 days, p < 0.05 compared to control by Students "t" test): 27% |
| NC(c1cc(-c2ccccc2F)c(-c2ccccc2F)s1)(C(F)(F)F)C(F)(F)F [Example 18] |  | Percent Decrease From Control Paw Volume (daily oral dose 81 mg/kg, 7 days, p < 0.001 compared to control by Students "t" test): 41% |
| CNC(c1cc(-c2ccc(F)cc2)c(-c2ccc(F)cc2)s1)(C(F)(F)F)C(F)(F)F [Example 28, 1-[4,5-Bis(4-fluorophenyl)thiophen-2-yl]-2,2,2-trifluoro-1-trifluoromethyl-N-methylethanamine] | 6.2 |  |
| COc1ccc2c(c1)c(CC(=O)O)c(C)n2C(=O)c1ccc(Cl)cc1 [Indomethacin, reference compound] |  | ED50 (po): 0.25 mg/kg |
| CCCCC1C(=O)N(c2ccccc2)N(c2ccccc2)C1=O [Phenylbutazone, reference compound] | 10 |  |
